Reference: ChEMBL document CHEMBL1201862, “PubChem BioAssay data set” (2004)
Activity calls are given as the source filed them.

Legend:
[1] = alpha-synuclein stem-loop luciferase translation blockers – H4 neuroglioma cells, luminescence, confirmation (AID 1988); assay type: functional, cell-based
[2] = target: Histone-lysine N-methyltransferase NSD2 (Homo sapiens, UniProt O96028); assay type: biochemical
[3] = target: Induced myeloid leukemia cell differentiation protein Mcl-1 (Homo sapiens, UniProt Q07820); assay type: functional
[4] = target: Ribosomal protein S6 kinase alpha-3 (Homo sapiens, UniProt P51812); assay type: functional;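 note: measured within a kinome-wide profiling panel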
[5] = target: Tyrosine-protein kinase JAK2 (Homo sapiens, UniProt O60674); assay type: functional;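 note: JAK2 tested as one member of a kinase panel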
[6] = target: Phosphorylase b kinase gamma catalytic chain, liver/testis isoform (Homo sapiens, UniProt P15735); assay type: functional;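 note: PHKG2 measured as one member of a kinome-wide kinase panel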
[7] = target: ALK tyrosine kinase receptor (Homo sapiens, UniProt Q9UM73); assay type: functional;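 note: ALK tested as one member of a kinase panel screen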
[8] = target: Serine/threonine-protein kinase PLK4 (Homo sapiens, UniProt O00444); assay type: functional;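 note: PLK4 measured as one member of a kinome-wide kinase profiling panel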
Serine/threonine-protein kinase PLK4, sequence (O00444 whole entry): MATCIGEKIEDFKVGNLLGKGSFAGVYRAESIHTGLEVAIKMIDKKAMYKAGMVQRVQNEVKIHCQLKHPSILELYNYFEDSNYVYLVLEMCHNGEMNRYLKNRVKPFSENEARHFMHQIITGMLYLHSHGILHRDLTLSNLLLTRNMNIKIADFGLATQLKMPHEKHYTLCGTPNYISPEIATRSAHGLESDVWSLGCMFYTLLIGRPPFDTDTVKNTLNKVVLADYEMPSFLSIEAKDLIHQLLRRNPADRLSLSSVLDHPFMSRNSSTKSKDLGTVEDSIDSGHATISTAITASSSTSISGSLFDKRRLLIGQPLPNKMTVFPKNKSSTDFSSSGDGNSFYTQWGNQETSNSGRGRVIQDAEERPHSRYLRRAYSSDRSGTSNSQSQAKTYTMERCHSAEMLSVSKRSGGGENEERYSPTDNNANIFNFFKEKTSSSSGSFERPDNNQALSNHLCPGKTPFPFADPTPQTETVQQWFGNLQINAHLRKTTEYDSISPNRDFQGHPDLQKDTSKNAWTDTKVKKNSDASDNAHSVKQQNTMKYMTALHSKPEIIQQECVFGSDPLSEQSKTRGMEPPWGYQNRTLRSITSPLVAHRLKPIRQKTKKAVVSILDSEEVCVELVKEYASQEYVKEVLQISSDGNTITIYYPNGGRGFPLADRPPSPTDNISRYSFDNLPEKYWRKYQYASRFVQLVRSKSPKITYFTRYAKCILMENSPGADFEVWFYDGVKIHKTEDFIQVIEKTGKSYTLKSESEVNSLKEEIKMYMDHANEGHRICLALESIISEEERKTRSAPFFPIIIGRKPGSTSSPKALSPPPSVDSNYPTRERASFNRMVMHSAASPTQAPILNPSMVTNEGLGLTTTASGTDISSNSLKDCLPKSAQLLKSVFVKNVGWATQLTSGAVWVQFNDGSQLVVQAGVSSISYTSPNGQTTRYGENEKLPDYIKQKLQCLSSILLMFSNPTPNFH

[9] = target: Proto-oncogene tyrosine-protein kinase receptor Ret (Homo sapiens, UniProt P07949); assay type: functional;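 note: measured within a kinome-wide profiling panel, RET as the panel member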
[10] = target: Tyrosine-protein kinase SYK (Homo sapiens, UniProt P43405); assay type: functional
[11] = target: Serine/threonine-protein kinase D3 (Homo sapiens, UniProt O94806); assay type: functional;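 note: determined within a kinase panel screen, with PRKCN as the panel member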
Serine/threonine-protein kinase D3, sequence (O94806 whole entry): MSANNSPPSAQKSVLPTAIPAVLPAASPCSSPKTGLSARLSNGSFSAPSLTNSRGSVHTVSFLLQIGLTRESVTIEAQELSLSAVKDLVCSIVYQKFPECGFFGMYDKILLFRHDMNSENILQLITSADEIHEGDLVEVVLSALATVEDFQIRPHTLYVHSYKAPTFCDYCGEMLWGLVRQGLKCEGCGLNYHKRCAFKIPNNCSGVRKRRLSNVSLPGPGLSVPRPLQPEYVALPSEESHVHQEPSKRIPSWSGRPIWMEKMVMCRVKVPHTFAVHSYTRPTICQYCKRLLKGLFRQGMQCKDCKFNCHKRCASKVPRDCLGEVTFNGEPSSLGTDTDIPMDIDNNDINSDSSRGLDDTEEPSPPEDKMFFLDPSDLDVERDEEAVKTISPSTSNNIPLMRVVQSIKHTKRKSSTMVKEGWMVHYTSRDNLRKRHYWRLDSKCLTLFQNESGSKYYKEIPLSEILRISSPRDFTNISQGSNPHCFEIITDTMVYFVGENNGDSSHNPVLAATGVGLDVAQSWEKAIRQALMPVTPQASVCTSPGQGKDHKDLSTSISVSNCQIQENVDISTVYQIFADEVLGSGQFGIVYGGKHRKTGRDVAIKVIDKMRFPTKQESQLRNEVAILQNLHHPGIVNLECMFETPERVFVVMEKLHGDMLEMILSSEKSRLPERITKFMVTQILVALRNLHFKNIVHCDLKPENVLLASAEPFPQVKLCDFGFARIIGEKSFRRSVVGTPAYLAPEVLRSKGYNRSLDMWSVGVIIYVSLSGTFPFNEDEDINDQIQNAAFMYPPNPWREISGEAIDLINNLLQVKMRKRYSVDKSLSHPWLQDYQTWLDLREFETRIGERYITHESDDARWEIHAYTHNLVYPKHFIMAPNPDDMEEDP

[12] = target: Serine/threonine-protein kinase pim-1 (Homo sapiens, UniProt P11309); assay type: functional
Aurora kinase A = Aurora kinase A (Homo sapiens, UniProt O14965); assay type: functional;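 note: value from the Navigating the Kinome kinase panel profiling, panel entry STK6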
[13] = target: MAP kinase-activated protein kinase 5 (Homo sapiens, UniProt Q8IW41); assay type: functional;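 note: measured as one member of a kinome panel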
[14] = target: Tyrosine-protein kinase BTK (Homo sapiens, UniProt Q06187); assay type: functional
Tyrosine-protein kinase BTK, sequence (Q06187 whole entry): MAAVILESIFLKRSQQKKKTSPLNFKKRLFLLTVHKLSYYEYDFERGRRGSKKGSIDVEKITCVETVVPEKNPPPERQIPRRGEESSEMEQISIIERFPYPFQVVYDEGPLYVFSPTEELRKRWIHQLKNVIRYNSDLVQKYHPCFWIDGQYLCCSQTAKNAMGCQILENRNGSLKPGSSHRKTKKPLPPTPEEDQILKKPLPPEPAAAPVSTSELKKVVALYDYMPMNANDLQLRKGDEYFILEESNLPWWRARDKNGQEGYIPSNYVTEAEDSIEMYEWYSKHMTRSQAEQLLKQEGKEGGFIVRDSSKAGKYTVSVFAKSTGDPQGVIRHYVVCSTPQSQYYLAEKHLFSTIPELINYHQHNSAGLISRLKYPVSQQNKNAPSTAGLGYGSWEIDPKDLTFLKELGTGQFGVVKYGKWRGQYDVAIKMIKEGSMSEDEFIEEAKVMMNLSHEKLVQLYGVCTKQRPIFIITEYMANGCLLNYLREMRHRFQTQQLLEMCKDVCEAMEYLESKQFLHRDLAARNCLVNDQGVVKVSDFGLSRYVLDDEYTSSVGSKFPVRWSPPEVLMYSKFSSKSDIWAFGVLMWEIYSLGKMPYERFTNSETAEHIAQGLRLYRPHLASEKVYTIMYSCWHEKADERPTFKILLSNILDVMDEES

[15] = target: Tyrosine-protein kinase ITK/TSK (Homo sapiens, UniProt Q08881); assay type: functional;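 note: affinity for ITK measured as one member of a broad kinase panel profiling binding across the kinome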
[16] = target: Serine/threonine-protein kinase TAO1 (Homo sapiens, UniProt Q7L7X3); assay type: functional
[17] = target: Proto-oncogene tyrosine-protein kinase ROS (Homo sapiens, UniProt P08922); assay type: functional;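 note: ROS1 tested as one member of a kinome-wide kinase panel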
[18] = target: Homeodomain-interacting protein kinase 2 (Homo sapiens, UniProt Q9H2X6); assay type: functional;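 note: measured within a kinome-wide kinase profiling panel, HIPK2 being one panel member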
[19] = target: High affinity nerve growth factor receptor (Homo sapiens, UniProt P04629); assay type: functional;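 note: NTRK1 tested as one member of a kinome-wide profiling panel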
[20] = target: Mitogen-activated protein kinase kinase kinase 20 (Homo sapiens, UniProt Q9NYL2); assay type: functional
[21] = target: Serine/threonine-protein kinase pim-3 (Homo sapiens, UniProt Q86V86); assay type: functional;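 note: value obtained as one member of a broad kinase panel profiling effort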
[22] = target: Proto-oncogene tyrosine-protein kinase Src (Homo sapiens, UniProt P12931); assay type: functional;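 note: SRC entry within a kinome-wide kinase profiling panel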
[23] = target: G protein-coupled receptor kinase 5 (Homo sapiens, UniProt P34947); assay: Navigating the Kinome. Panel member name: GPRK5; assay type: functional
G protein-coupled receptor kinase 5, sequence (P34947 whole entry): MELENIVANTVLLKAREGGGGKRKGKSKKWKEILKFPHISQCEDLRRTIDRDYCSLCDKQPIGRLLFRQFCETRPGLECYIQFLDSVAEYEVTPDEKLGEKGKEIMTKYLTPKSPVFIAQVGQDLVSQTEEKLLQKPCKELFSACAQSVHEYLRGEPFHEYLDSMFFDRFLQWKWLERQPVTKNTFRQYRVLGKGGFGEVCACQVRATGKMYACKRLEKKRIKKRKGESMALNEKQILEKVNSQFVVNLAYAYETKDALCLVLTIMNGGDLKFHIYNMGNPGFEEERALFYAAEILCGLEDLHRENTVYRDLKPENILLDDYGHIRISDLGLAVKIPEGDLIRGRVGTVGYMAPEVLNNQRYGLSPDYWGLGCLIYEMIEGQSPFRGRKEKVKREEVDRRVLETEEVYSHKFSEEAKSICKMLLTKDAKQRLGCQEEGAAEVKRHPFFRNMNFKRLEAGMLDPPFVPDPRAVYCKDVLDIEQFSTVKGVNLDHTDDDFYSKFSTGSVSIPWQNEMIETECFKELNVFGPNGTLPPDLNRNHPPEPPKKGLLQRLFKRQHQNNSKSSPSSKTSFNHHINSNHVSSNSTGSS

Misshapen-like kinase 1 = Misshapen-like kinase 1 (Homo sapiens, UniProt Q8N4C8); assay type: functional;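 note: kinome panel screen with MINK as the panel member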
[24] = target: Dual specificity tyrosine-phosphorylation-regulated kinase 4 (Homo sapiens, UniProt Q9NR20); assay type: functional
[25] = target: Dual specificity tyrosine-phosphorylation-regulated kinase 1B (Homo sapiens, UniProt Q9Y463); assay: Navigating the Kinome. Panel member name: DYRK1B; assay type: functional
[26] = target: cAMP-dependent protein kinase catalytic subunit PRKX (Homo sapiens, UniProt P51817); assay type: functional
[27] = target: Interleukin-1 receptor-associated kinase 1 (Homo sapiens, UniProt P51617); assay type: functional;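 note: IRAK1 tested as one member of a kinome panel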
Interleukin-1 receptor-associated kinase 1, sequence (P51617 whole entry): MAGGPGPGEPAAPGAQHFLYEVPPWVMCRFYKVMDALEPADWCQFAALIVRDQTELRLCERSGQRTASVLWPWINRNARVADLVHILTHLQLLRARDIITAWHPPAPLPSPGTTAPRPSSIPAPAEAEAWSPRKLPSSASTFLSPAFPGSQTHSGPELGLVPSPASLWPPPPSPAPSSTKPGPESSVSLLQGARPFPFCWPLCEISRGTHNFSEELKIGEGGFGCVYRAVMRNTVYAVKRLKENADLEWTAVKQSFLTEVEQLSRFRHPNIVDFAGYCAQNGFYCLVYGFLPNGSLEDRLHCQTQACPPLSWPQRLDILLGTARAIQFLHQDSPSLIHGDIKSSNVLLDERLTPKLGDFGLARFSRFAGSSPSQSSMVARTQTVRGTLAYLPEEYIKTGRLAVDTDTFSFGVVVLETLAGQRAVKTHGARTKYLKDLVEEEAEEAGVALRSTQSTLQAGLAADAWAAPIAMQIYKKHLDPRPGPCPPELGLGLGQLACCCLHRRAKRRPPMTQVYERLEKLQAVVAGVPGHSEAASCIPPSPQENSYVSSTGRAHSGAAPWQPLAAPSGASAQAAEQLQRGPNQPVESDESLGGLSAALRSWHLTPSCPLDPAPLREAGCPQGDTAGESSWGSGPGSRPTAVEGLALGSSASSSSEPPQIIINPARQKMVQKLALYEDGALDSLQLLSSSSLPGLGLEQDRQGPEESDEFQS

[28] = target: Maternal embryonic leucine zipper kinase (Homo sapiens, UniProt Q14680); assay type: functional
[29] = target: RAC-alpha serine/threonine-protein kinase (Homo sapiens, UniProt P31749); assay type: functional;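 note: AKT1 affinity measured as one member of a kinome-wide kinase profiling panel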
[30] = target: Tyrosine-protein kinase Fyn (Homo sapiens, UniProt P06241); assay type: functional
[31] = target: Serine/threonine-protein kinase DCLK1 (Homo sapiens, UniProt O15075); assay type: functional;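 note: affinity for DCLK1 (listed as DCAMKL1) measured as one member of a kinome-wide kinase profiling panel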
[32] = target: Vascular endothelial growth factor receptor 1 (Homo sapiens, UniProt P17948); assay type: functional;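 note: measured within a kinome-wide profiling panel, FLT1 as the panel member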
[33] = target: Cyclin-dependent kinase 9 (Homo sapiens, UniProt P50750); assay type: functional;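 note: value from the CDK9 entry of a kinome-spanning kinase panel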
[34] = target: Mitogen-activated protein kinase kinase kinase kinase 4 (Homo sapiens, UniProt O95819); assay type: functional
Mitogen-activated protein kinase kinase kinase kinase 4, sequence (O95819 whole entry): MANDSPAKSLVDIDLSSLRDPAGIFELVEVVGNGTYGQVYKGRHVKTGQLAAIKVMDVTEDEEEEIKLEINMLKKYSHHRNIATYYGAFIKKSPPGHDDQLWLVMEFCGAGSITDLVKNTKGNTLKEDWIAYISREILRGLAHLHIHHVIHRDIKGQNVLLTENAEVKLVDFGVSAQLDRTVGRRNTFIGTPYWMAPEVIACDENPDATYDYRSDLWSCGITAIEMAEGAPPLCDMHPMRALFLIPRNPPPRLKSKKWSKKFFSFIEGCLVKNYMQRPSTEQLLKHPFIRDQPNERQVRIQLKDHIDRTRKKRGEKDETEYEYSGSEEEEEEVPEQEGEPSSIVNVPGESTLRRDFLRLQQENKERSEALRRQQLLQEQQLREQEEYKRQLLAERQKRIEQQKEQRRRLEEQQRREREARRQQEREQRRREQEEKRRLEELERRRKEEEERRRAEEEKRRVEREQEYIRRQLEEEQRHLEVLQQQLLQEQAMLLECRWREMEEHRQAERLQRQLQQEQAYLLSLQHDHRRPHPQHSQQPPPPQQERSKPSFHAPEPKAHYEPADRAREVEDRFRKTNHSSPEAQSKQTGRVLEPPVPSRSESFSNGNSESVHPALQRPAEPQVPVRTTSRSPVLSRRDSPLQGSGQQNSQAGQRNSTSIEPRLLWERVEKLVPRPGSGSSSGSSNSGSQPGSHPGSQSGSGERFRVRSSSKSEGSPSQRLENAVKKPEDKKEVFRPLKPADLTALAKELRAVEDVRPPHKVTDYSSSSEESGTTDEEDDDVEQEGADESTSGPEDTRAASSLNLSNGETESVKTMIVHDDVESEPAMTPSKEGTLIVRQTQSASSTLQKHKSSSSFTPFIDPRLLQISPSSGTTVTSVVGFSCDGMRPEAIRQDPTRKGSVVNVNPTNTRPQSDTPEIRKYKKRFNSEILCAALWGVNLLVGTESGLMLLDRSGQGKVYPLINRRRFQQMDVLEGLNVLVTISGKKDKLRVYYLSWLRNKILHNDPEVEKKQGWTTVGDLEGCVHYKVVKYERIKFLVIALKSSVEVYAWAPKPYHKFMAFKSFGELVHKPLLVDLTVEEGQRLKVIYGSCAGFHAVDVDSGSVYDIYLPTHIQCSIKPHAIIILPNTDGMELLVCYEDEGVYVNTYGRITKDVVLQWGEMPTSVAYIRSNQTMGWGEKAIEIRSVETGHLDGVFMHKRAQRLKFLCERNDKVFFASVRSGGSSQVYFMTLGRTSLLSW

[35] = target: Serine/threonine-protein kinase MRCK alpha (Homo sapiens, UniProt Q5VT25); assay type: functional
[36] = NIH3T3 cell viability loss – ATP luminescence, mouse fibroblasts, counter-screen, dose response (AID 2010); assay type: functional, cell-based;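 note: cells exposed to compound for about 90 hours before reading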
[37] = target: T1, Microphthalmia-associated transcription factor (Homo sapiens, UniProt O75030); assay: reducers of TRPM1 reporter luminescence, concentration series – cell-based, SK-MEL-5, cherry-picked, set 3, MITF inhibitor project, dose response (AID 493073); assay type: functional;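 note: SK-MEL-5 melanoma cells with luciferase driven by the MITF target TRPM1 promoter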
T1 sequence (O75030 whole entry): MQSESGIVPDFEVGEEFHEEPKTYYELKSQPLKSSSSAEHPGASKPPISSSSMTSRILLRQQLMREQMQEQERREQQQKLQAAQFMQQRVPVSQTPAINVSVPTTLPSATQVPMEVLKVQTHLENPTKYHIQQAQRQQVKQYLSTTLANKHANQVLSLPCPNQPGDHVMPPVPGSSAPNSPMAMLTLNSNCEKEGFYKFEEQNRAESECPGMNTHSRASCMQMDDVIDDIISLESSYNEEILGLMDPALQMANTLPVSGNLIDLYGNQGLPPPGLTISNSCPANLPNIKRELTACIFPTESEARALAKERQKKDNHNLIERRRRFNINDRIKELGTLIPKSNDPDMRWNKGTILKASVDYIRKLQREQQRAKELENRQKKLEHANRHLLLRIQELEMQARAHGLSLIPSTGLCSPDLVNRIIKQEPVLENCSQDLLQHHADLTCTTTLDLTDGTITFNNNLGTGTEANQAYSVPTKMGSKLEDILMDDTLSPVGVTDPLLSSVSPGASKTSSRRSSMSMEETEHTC

In the case of `NS(=O)(=O)c1ccc(NC2=CC(=O)C(=O)c3ccccc32)cc1`, the EC50 [1] is reported as 8.45 µM (active) and the AC50 [2] is reported as 3.1 µM (active).

In the case of `O=C(N/N=C/c1ccc(O)cc1O)c1ccc(CN2C(=O)c3cccc4cccc2c34)cc1`, the IC50 [3] is reported as 1.47 µM (active).

In the case of `Clc1cc(-c2c[nH]c3ncccc23)nc(NC2CCCCC2)n1`, the Ki [4] is reported as > 2 µM (inactive), the Ki [5] is reported as > 2.51 µM (inactive) and the Ki [6] is reported as > 5.01 µM (inactive). For the same molecule, the Ki [7] was > 3.98 µM (inactive), the Ki [8] was > 3.98 µM (inactive) and the Ki [9] was > 2 µM (inactive). The Ki [10] was > 1.58 µM (inactive), the Ki [11] was > 2 µM (inactive) and the Ki [12] was > 5.01 µM (inactive). For the same molecule, the Ki (Aurora kinase A) was > 1.58 µM (inactive), the Ki [13] was > 1.58 µM (inactive) and the Ki [14] was > 3.98 µM (inactive). The Ki [15] was 1.26 µM (active), the Ki [16] was > 7.94 µM (inactive) and the Ki [17] was > 2 µM (inactive). The Ki [18] was 0.1 µM (active), the Ki [19] was 2 µM (active) and the Ki [20] was > 7.94 µM (inactive). For the same molecule, the Ki [21] was > 7.94 µM (inactive), the Ki [22] was > 2 µM (inactive) and the Ki [23] was > 3.98 µM (inactive). For the same molecule, the Ki (Misshapen-like kinase 1) was 0.00794 µM (active), the Ki [24] was 0.501 µM (active) and the Ki [25] was 0.00794 µM (active). For the same molecule, the Ki [26] was > 1.26 µM (inactive), the Ki [27] was 0.0501 µM (active) and the Ki [28] was 0.316 µM (active). For the same molecule, the Ki [29] was > 7.94 µM (inactive), the Ki [30] was > 0.794 µM (inactive) and the Ki [31] was > 10 µM (inactive). For the same molecule, the Ki [32] was 0.398 µM (active), the Ki [33] was > 0.794 µM (inactive) and the Ki [34] was 0.126 µM (active). For the same molecule, the Ki [35] was 0.126 µM (active).

With `CCC(=O)NC(c1ccccc1OC)c1ccc2cccnc2c1O` (centres undefined) the EC50 [36] was 1.67 µM (active) and the AC50 [37] was 6.7 µM (active).
